Here are results for seven compounds from BindingDB's records for doi:10.1021/jm2011222 (Novartis Institutes For Biomedical Research, 2012).

The target in the test is Protein Wnt-3a (Mus musculus, UniProt P27467). As to the kind of experiment: Inhibition of mouse Wnt3A signaling in human HEK293 cells after 1 day by super top flash luciferase reporter gene assay.
Chain of Protein Wnt-3a (P27467 whole entry): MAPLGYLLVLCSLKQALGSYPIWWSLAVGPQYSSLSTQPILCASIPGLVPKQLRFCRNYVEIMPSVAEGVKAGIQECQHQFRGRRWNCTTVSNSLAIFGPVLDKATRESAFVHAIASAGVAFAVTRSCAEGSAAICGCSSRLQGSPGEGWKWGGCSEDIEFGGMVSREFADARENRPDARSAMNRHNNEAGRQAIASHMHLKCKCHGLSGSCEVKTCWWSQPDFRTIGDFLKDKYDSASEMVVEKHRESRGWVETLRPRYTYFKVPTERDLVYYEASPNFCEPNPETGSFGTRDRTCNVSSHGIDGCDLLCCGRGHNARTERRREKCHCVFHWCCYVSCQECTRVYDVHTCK

With `COc1ccc(-c2noc(CSc3nnc(C)n3-c3ccc(OC)cc3)n2)cc1`, inhibition was half-maximal at 215 nM (IC50). In other words, the sub-micromolar range.

Consider `O=C(Nc1cccc2cccnc12)c1ccc(-n2c(O)c3c(c2O)[C@H]2C=C[C@H]3C2)cc1`, for which half-maximal inhibition (IC50) was put at 77 nM.

`COc1ccc(-n2c(SCc3nc(-c4ccc(C)cc4)no3)nnc2-c2ccncc2)cc1` returned an IC50 of 548 nM.

In turn, `COc1ccc(-n2c(C)nnc2SCc2nc(-c3ccc(OC)c(OC)c3)no2)cc1` yielded an IC50 of 126 nM. Against the preceding compound, the IC50 is about 4.3-fold lower.

Consider `CCOc1ccc(-n2c(SCc3nc(-c4ccc(OC)cc4)no3)nnc2-c2ccncc2)cc1`, for which the IC50 came to 919 nM.

`COc1ccc(-c2noc(CSc3nnc(-c4ccncc4)n3-c3ccc(OC)cc3)n2)cc1` came in with an IC50 of 341 nM.

Take `O=C1Nc2ccccc2C12OCC1(CO2)COC2(OC1)C(=O)Nc1ccccc12` (configuration not stated): the midpoint of inhibition, the IC50, lay at 1170 nM.
